molecular target: cAMP and cAMP-inhibited cGMP 3',5'-cyclic phosphodiesterase 10A (Homo sapiens, UniProt Q9Y233); experiment: PDE10A assay
Summary of the method: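 Scintillation proximity readout of [3H]cGMP hydrolysis (50 nM final substrate, 15 min) by 2 ng/well human PDE10A after 15 min compound preincubation at RT, pH 7.5 with MgCl2. Four-parameter logistic fit gave IC50, reported as pIC50.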

Row | Structure (SMILES) | IC50
1 | CN1CCC(n2nc(-c3ccccn3)cc2NC(=O)c2nc(C3CC3)ccc2Nc2cncnc2)CC1 [US8470820, 43] | 4.15 nM
2 | CCN(C)C(=O)c1cnn(CCF)c1C(=O)Nc1ccn2cc(-c3ccccc3)nc2n1 [Roche-Dataset for PDE10A, Compound 26] | 10000 nM
3 | Cn1ncc(C(=O)N2CCC2)c1C(=O)Nc1ccn(-c2ccc(Cl)cc2Cl)n1 [Roche-Dataset for PDE10A, Compound 1034] | 1060 nM
4 | CN(C)c1nc(/C=C/c2nc(Br)cs2)nc2ccc(Cl)cc12 [Roche-Dataset for PDE10A, Compound 612] | 1470 nM
5 | COC(=O)c1cccc(NC(=O)c2nc(C3CC3)cnc2Nc2cncnc2)n1 [Roche-Dataset for PDE10A, Compound 1037] | 29 nM
6 | Cn1ncc(C(=O)N2CC(F)C2)c1C(=O)Nc1ccn2nc(-c3ccccc3)nc2c1 [Roche-Dataset for PDE10A, Compound 165] | 0.36 nM
7 | CN(C)c1nc2cc(NC(=O)c3c(C(=O)N4CCC4)cnn3C)ccc2s1 [Roche-Dataset for PDE10A, Compound 461] | 3.12 nM
8 | Cc1ccc(NC(=O)c2nc(C3CC3)cnc2Nc2cncnc2)c(C(=O)N(C)C)n1 [US8703768, 276] | 13 nM
9 | O=C(Nc1conc1-c1ccccn1)c1nc(C2CC2)ccc1Nc1cncnc1 [Roche-Dataset for PDE10A, Compound 990] | 15 nM
10 | CN(C)C(=O)c1cnn(C)c1C(=O)N[C@@H]1CCn2c(nc(-c3ccccc3)c2Cl)C1 [Roche-Dataset for PDE10A, Compound 221] | 30 nM
11 | Cc1cc(C(=O)Nc2cc3[nH]c(-c4ccccc4)nc3cc2C(F)(F)F)n(C)n1 [Roche-Dataset for PDE10A, Compound 731] | 10000 nM
12 | Cn1ncc(C(=O)N2CCC2)c1C(=O)Nc1ccc2sc(-c3ccccc3)nc2c1 [Roche-Dataset for PDE10A, Compound 174] | 0.77 nM
13 | Cc1c(Cl)cc(Cl)c2nc(CCc3nc(N4CCCC4)no3)nn12 [Roche-Dataset for PDE10A, Compound 521] | 17 nM
14 | Cc1cc(C#Cc2nc(N3CCCC3)nn2C)nn2c(C)c(C(F)(F)F)nc12 [US9617271, 54] | 0.64 nM
15 | Cc1ncc(C)n2nc(/C=C/c3nc(N4CCNCC4)nn3C)nc12 [Roche-Dataset for PDE10A, Compound 311] | 1550 nM
16 | O=C(NCc1nccn1Cc1ccccc1)c1nc(C2CC2)cnc1Nc1cncnc1 [Roche-Dataset for PDE10A, Compound 631] | 273 nM
17 | CNc1cc(C(=O)Nc2ccn3nc(-c4ccccc4)nc3c2)cc(Cl)n1 [Roche-Dataset for PDE10A, Compound 199] | 86 nM
18 | COCCOc1ccc(NC(=O)c2nc(C3CC3)cnc2Nc2cncnc2)c(C(=O)NCC(C)(C)O)c1 [US8703768, 213] | 0.74 nM
19 | CNC(=O)c1cc2[nH]c(-c3ccccc3)nc2cc1NC(=O)c1c(C(=O)N2CCOCC2)cnn1C [Roche-Dataset for PDE10A, Compound 453] | 195 nM
20 | CNC(=O)c1cccc(NC(=O)c2nc(C3CC3)cnc2Nc2cncnc2)n1 [Roche-Dataset for PDE10A, Compound 1026] | 170 nM
21 | O=C(c1nc(C2CC2)cnc1Nc1cncnc1)N1CCN(Cc2ccccc2)CC1 [Roche-Dataset for PDE10A, Compound 1008] | 371 nM

Row | Structure (SMILES) | IC50
22 | Cc1nn2ccc(CCc3nc(-c4ccccc4)cn3C)nc2c1C [US10399985, Example 16] | 4.89 nM
23 | Cn1ncc(C(=O)N2C[C@@H]3C[C@H]2CO3)c1C(=O)Nc1ccn2nc(N3CCOCC3)nc2c1 [Roche-Dataset for PDE10A, Compound 193] | 128 nM
24 | Cn1cc(-c2ccccc2)nc1CCc1nc2ccc(Cl)cc2c(=O)[nH]1 [Roche-Dataset for PDE10A, Compound 93] | 9.14 nM
25 | O=C(NCCO)c1ncccc1NC(=O)c1nc(C2CC2)cnc1Nc1cncnc1 [US8703768, 271] | 0.36 nM
26 | Cn1cc(-c2ccccc2)nc1CCNC(=O)c1cccn2c(C3CC3)nnc12 [Roche-Dataset for PDE10A, Compound 92] | 43 nM
27 | CC(C)Oc1cc(C(=O)Nc2ccn3nc(-c4ccccc4)nc3c2)cc(Cl)n1 [Roche-Dataset for PDE10A, Compound 116] | 65 nM
28 | Cn1ncc(C(=O)N2CCC2)c1C(=O)Nc1ccc2nc(N3CCCC3)nn2c1 [Roche-Dataset for PDE10A, Compound 469] | 0.48 nM
29 | Cn1cc(-c2ccccc2)nc1CCc1nc2ccccc2nc1N1CCCC1 [Roche-Dataset for PDE10A, Compound 98] | 3.44 nM
30 | CC(C)n1nc(-c2ccccn2)cc1NC(=O)c1nc(C2CC2)ccc1Nc1cncnc1 [US8470820, 27] | 2.55 nM
31 | O=C(Nc1cc(Cl)ncn1)c1ccc2cc(-c3ccccc3)nn2c1 [Roche-Dataset for PDE10A, Compound 419] | 249 nM
32 | O=C(N[C@@H]1C[C@H]1c1ccccc1)c1nc(C2CC2)cnc1Nc1cncnc1 [Roche-Dataset for PDE10A, Compound 749] | 711 nM
33 | Cc1cnc(C)n2nc(CCc3nc(N4CCNC(=O)C4)nn3C)nc12 [Roche-Dataset for PDE10A, Compound 483] | 848 nM
34 | Cn1cc(-c2ccccc2)nc1/C=C/c1ncc(Cl)nc1Cl [Roche-Dataset for PDE10A, Compound 465] | 824 nM
35 | O=C(NCC1CC1)c1cccc(NC(=O)c2nc(C3CC3)cnc2Nc2cncnc2)n1 [Roche-Dataset for PDE10A, Compound 880] | 9.65 nM
36 | Cn1nc(C2CCCC2)cc1NC(=O)c1nc(C2CC2)ccc1Nc1cncnc1 [Roche-Dataset for PDE10A, Compound 677] | 439 nM
37 | CC(C)OC(=O)c1c(C(=O)Nc2ccn3nc(-c4ccccc4)nc3c2)cnn1C [Roche-Dataset for PDE10A, Compound 428] | 15 nM
38 | O=C(NCCc1noc(-c2ccccc2)n1)c1nc(C2CC2)cnc1Nc1cncnc1 [Roche-Dataset for PDE10A, Compound 271] | 48 nM
39 | O=C(Nc1ccc(N2CCOCC2=O)cc1)c1nc(C2CC2)ccc1Nc1cncnc1 [Roche-Dataset for PDE10A, Compound 686] | 43 nM
40 | Clc1ccc2nc(CCc3nc4ccc(Cl)cn4n3)nn2c1 [Roche-Dataset for PDE10A, Compound 780] | 77 nM
41 | O=C(NCCN1CCCc2ccccc21)c1nc(C2CC2)cnc1Nc1cncnc1 [Roche-Dataset for PDE10A, Compound 449] | 46 nM

The remaining compounds from weak to strong by IC50, led by results:

Row | IC50 | Structure (SMILES)
42 | 4330 nM | Cn1ncc(NC(=O)c2c(C(=O)N3CCC3)cnn2C)c1C(=O)N1CCCCC1 [Roche-Dataset for PDE10A, Compound 1035]
43 | 3150 nM | Cn1ncc(C(=O)N2CCC2)c1C(=O)Nc1ccn(CCC#N)n1 [Roche-Dataset for PDE10A, Compound 1114]
44 | 2380 nM | CCOc1ccccc1C(=O)Nc1cc(-c2ccccn2)nn1C [Roche-Dataset for PDE10A, Compound 666]
45 | 1790 nM | O=C(NC1CCOCC1)c1nc(C2CC2)cnc1Nc1cncnc1 [Roche-Dataset for PDE10A, Compound 1059]
46 | 1410 nM | O=C(NCCC1CCCCC1)c1nc(C2CC2)cnc1Nc1cncnc1 [Roche-Dataset for PDE10A, Compound 901]
47 | 1230 nM | CC(C)c1nc2cc(NC(=O)c3c(C(=O)O)cnn3C)ccn2n1 [Roche-Dataset for PDE10A, Compound 848]
48 | 954 nM | O=C(NC[C@@H]1[C@@H](c2ccccc2)C1(F)F)c1nc(C2CC2)cnc1Nc1cncnc1 [Roche-Dataset for PDE10A, Compound 661]
49 | 890 nM | O=C(NCc1cncs1)c1nc(C2CC2)cnc1Nc1cncnc1 [Roche-Dataset for PDE10A, Compound 1028]
50 | 375 nM | O=C(Nc1cc(C2CCCC2)n[nH]1)c1nc(C2CC2)ccc1Nc1cncnc1 [Roche-Dataset for PDE10A, Compound 653]
51 | 242 nM | Cn1ncc(C(=O)N2CCC2)c1C(=O)Nc1ccn(C2CCCCC2)n1 [Roche-Dataset for PDE10A, Compound 1064]
52 | 179 nM | Cc1nc2ccccc2nc1OCc1nc(-c2ccc(Cl)cc2)cn1C [Roche-Dataset for PDE10A, Compound 810]
53 | 123 nM | Cc1c(Cl)cc(C(F)(F)F)c2nc(CCc3nc(I)nn3C)nn12 [Roche-Dataset for PDE10A, Compound 615]
54 | 114 nM | CNC(=O)c1cc2[nH]c(-c3ccccc3)nc2cc1NC(=O)c1cc(C(C)(C)C)nn1C [Roche-Dataset for PDE10A, Compound 650]
55 | 88 nM | Cn1cc(-c2ccccc2)nc1CCNC(=O)c1cccn2c(C(F)(F)F)nnc12 [Roche-Dataset for PDE10A, Compound 298]
56 | 82 nM | Cc1ncc(C)n2nc(CCc3ncn(-c4ccccc4)n3)nc12 [Roche-Dataset for PDE10A, Compound 400]
57 | 58 nM | CCOC(=O)c1cnn(C)c1C(=O)Nc1ccn2nc(N(C)C3CC3)nc2c1 [Roche-Dataset for PDE10A, Compound 486]
58 | 27 nM | O=C1CCc2ccc(NC(=O)c3nc(C4CC4)cnc3Nc3cncnc3)cc21 [Roche-Dataset for PDE10A, Compound 881]
59 | 21 nM | O=C(Nc1ccn(C2CCC2)n1)c1nc(C2CC2)ccc1Nc1cncnc1 [Roche-Dataset for PDE10A, Compound 695]
60 | 5.85 nM | CC(=O)N1CCc2ccc(NC(=O)c3nc(C4CC4)cnc3Nc3cncnc3)cc21 [Roche-Dataset for PDE10A, Compound 827]
61 | 2.61 nM | Cn1ncc(C(=O)N2CCC2)c1C(=O)Nc1cc2nc(-c3ccccc3)nn2cn1 [Roche-Dataset for PDE10A, Compound 236]
62 | 2.26 nM | O=C(Nc1cnc(-c2ccccn2)s1)c1nc(C2CC2)ccc1Nc1cncnc1
63 | 1.53 nM | O=C(Nc1cc(-c2ccccn2)nn1CCN1CCOCC1)c1nc(C2CC2)ccc1Nc1cncnc1 [US8470820, 16]
64 | 1.06 nM | O=C(Nc1cc(-c2ccccn2)nn1CC1CCCCC1)c1nc(C2CC2)ccc1Nc1cncnc1 [US8470820, 32]
65 | 0.38 nM | CC1(NC(=O)c2ncccc2NC(=O)c2nc(C3CC3)cnc2Nc2cncnc2)COC1 [US8703768, 275]
66 | 0.08 nM | Cn1nc(-c2ccc3ccccc3n2)cc1NC(=O)c1nc(C2CC2)ccc1Nc1cncnc1 [US8470820, 40]
